Laboratory results from ChEMBL document CHEMBL1201862, “PubChem BioAssay data set” (2004).
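96-well plates; 48 h exposure; 5 concentrations. Endpoints by linear interpolation between flanking doses. Not reached: highest tested concentration assigned. GI50: concentration for 50% inhibition of growth.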 Calls of active or inactive are those of the source. Cut-off read from the data, not from the text of the source: active = GI50 up to about 1.1 µM and inactive = higher.

How the values were obtained:
Experiment in all cases: NCI anticancer screen, dose series, 48 h
KM12 = tested on: KM12
SN12C = tested on: SN12C
IGROV-1 = tested on: IGROV-1
OVCAR-3 = tested on: OVCAR-3
K562 = tested on: K562
UO-31 = tested on: UO-31
NCI-H226 = tested on: NCI-H226
EKVX = tested on: EKVX
HCC 2998 = tested on: HCC 2998
MCF7 = tested on: MCF7
MDA-N = tested on: MDA-N
SF-539 = tested on: SF-539
UACC-62 = tested on: UACC-62
NCI-H522 = tested on: NCI-H522
M14 = tested on: M14
MDA-MB-435 = tested on: MDA-MB-435
CCRF-CEM = tested on: CCRF-CEM
786-0 = tested on: 786-0
Malme-3M = tested on: Malme-3M
HT-29 = tested on: HT-29
NCI/ADR-RES = tested on: NCI/ADR-RES
SK-MEL-28 = tested on: SK-MEL-28
OVCAR-5 = tested on: OVCAR-5
ACHN = tested on: ACHN
OVCAR-8 = tested on: OVCAR-8
HCT-116 = tested on: HCT-116
A498 = tested on: A498
SW-620 = tested on: SW-620
RXF 393 = tested on: RXF 393
MOLT-4 = tested on: MOLT-4
NCI-H460 = tested on: NCI-H460
SK-MEL-5 = tested on: SK-MEL-5
BT-549 = tested on: BT-549
NCI-H23 = tested on: NCI-H23
SR = tested on: SR
DU-145 = tested on: DU-145
HCT-15 = tested on: HCT-15
TK-10 = tested on: TK-10
SF-268 = tested on: SF-268
RPMI-8226 = tested on: RPMI-8226
SNB-75 = tested on: SNB-75
PC-3 = tested on: PC-3
SNB-19 = tested on: SNB-19
UACC-257 = tested on: UACC-257
LOX IMVI = tested on: LOX IMVI
HOP-62 = tested on: HOP-62
COLO 205 = tested on: COLO 205
HOP-92 = tested on: HOP-92
HL-60 = tested on: HL-60
Hs-578T = tested on: Hs-578T
A549 = tested on: A549
U-251 = tested on: U-251
T47D = tested on: T47D
SF-295 = tested on: SF-295
CAKI-1 = tested on: CAKI-1
SK-MEL-2 = tested on: SK-MEL-2
OVCAR-4 = tested on: OVCAR-4
SK-OV-3 = tested on: SK-OV-3
MDA-MB-231 = tested on: MDA-MB-231

Measured: GI50

COC(=O)c1ccccc1/C=C1\Cc2c(C)c3c(c(C)c2C1=O)CCC3
inactive: KM12 > 100 µM | SN12C > 100 µM | IGROV-1 > 100 µM | OVCAR-3 > 100 µM | K562 > 100 µM | UO-31 > 100 µM | NCI-H226 > 100 µM | EKVX > 100 µM | HCC 2998 > 100 µM | MCF7 > 100 µM | MDA-N > 100 µM | SF-539 88.9 µM | UACC-62 > 100 µM | NCI-H522 > 100 µM | M14 > 100 µM | MDA-MB-435 > 100 µM | CCRF-CEM > 100 µM | 786-0 46.6 µM | Malme-3M > 100 µM | HT-29 > 100 µM | NCI/ADR-RES > 100 µM | SK-MEL-28 > 100 µM | OVCAR-5 > 100 µM | ACHN > 100 µM | OVCAR-8 > 100 µM | HCT-116 > 100 µM | A498 > 100 µM | SW-620 > 100 µM | RXF 393 > 100 µM | MOLT-4 > 100 µM | NCI-H460 > 100 µM | SK-MEL-5 > 100 µM | BT-549 > 100 µM | NCI-H23 > 100 µM | SR > 100 µM | DU-145 > 100 µM | TK-10 > 100 µM | SF-268 64.1 µM | RPMI-8226 > 100 µM | SNB-75 63.7 µM | PC-3 > 100 µM | SNB-19 > 100 µM | UACC-257 > 100 µM | LOX IMVI > 100 µM | HOP-62 > 100 µM | COLO 205 > 100 µM | HOP-92 > 100 µM | HL-60 > 100 µM | Hs-578T 24.5 µM | A549 > 100 µM | U-251 37.8 µM | T47D > 100 µM | SF-295 > 100 µM | CAKI-1 > 100 µM | SK-MEL-2 6.27 µM | OVCAR-4 30.1 µM
> 100 µM: HCT-15

CCc1n[nH]c(=O)n1CCCCCCCCCCCCn1c(CC)n[nH]c1=O
inactive: KM12 33.6 µM | SN12C 59.8 µM | IGROV-1 29.5 µM | OVCAR-3 37.8 µM | K562 17.9 µM | UO-31 30.7 µM | NCI-H226 36.9 µM | SK-OV-3 62.4 µM | EKVX 32 µM | HCC 2998 34.5 µM | MCF7 23.9 µM | MDA-N 32.1 µM | SF-539 48.4 µM | UACC-62 18.3 µM | NCI-H522 26.2 µM | M14 25.9 µM | MDA-MB-435 23.1 µM | CCRF-CEM 18.7 µM | 786-0 35.5 µM | Malme-3M 25.9 µM | HT-29 32.7 µM | NCI/ADR-RES 28.6 µM | OVCAR-5 47.1 µM | ACHN 25.2 µM | OVCAR-8 24.7 µM | HCT-116 27 µM | A498 29.2 µM | SW-620 37.2 µM | RXF 393 37 µM | MOLT-4 22.5 µM | NCI-H460 26.6 µM | SK-MEL-5 16.1 µM | BT-549 26.8 µM | NCI-H23 20.2 µM | SR 19.2 µM | TK-10 33 µM | SF-268 29.7 µM | RPMI-8226 18.6 µM | SNB-75 21 µM | PC-3 27.5 µM | SNB-19 39.7 µM | UACC-257 11.7 µM | LOX IMVI 24.8 µM | HOP-62 56.6 µM | COLO 205 24.2 µM | HOP-92 37.1 µM | MDA-MB-231 28.1 µM | Hs-578T 22 µM | A549 27.9 µM | U-251 22 µM | T47D 18 µM | SF-295 25.1 µM | CAKI-1 27.7 µM | SK-MEL-2 52.8 µM | OVCAR-4 20.3 µM
40.9 µM: HCT-15

CN1CCN(C(=S)N(C)C(=O)c2cccs2)CC1
inactive: KM12 > 100 µM | SN12C > 100 µM | IGROV-1 > 100 µM | OVCAR-3 > 100 µM | K562 > 100 µM | UO-31 > 100 µM | NCI-H226 > 100 µM | HCC 2998 > 100 µM | MCF7 > 100 µM | MDA-N > 100 µM | UACC-62 > 100 µM | NCI-H522 > 100 µM | M14 > 100 µM | MDA-MB-435 > 100 µM | CCRF-CEM > 100 µM | 786-0 > 100 µM | Malme-3M > 100 µM | HT-29 > 100 µM | OVCAR-5 > 100 µM | ACHN > 100 µM | OVCAR-8 > 100 µM | SW-620 > 100 µM | RXF 393 > 100 µM | MOLT-4 > 100 µM | NCI-H460 > 100 µM | SK-MEL-5 > 100 µM | BT-549 > 100 µM | NCI-H23 > 100 µM | SR > 100 µM | DU-145 > 100 µM | TK-10 > 100 µM | RPMI-8226 > 100 µM | SNB-19 > 100 µM | UACC-257 > 100 µM | LOX IMVI > 100 µM | COLO 205 > 100 µM | HOP-92 > 100 µM | MDA-MB-231 > 100 µM | Hs-578T > 100 µM | A549 > 100 µM | U-251 > 100 µM | T47D > 100 µM | SF-295 > 100 µM | SK-MEL-2 > 100 µM | OVCAR-4 > 100 µM
> 100 µM: HCT-15
